Key:
[1] = mn = molality of the nth substance listed, in mol/kg; conditions: 101 kPa, Liquid, Frequency=3 MHz, Sing-around technique in a fixed-path interferometer
[2] = 101 kPa, Liquid, Frequency=3 MHz, Sing-around technique in a fixed-path interferometer

NCC(=O)O [2-aminoacetic acid] + O
speed of sound [m/s], [1]
Conditions	m1 = 0.01207	m1 = 0.0523	m1 = 0.1037	m1 = 0.2037	m1 = 0.3068	m1 = 0.4124	m1 = 0.5028	m1 = 0.6058	m1 = 0.6829	m1 = 0.82
288.15 K	1467.2	1470.1	1472.3	1477.8	1483.4	1488.7	1494.5	1499.2	1503.4	1510.2
298.15 K	1497.7	1500.1	1502.3	1507.2	1512.4	1517.8	1523	1527.3	1531.3	1537.7
308.15 K	1520	1522.9	1524.7	1529.7	1534.6	1539.7	1543.8	1548.7	1552.5	1558.6
318.15 K	1537.2	1538.9	1541.1	1545.8	1551.4	1555.4	1560.2	1564.1	1567.7	1573.5

C[C@H](N)C(=O)O [(S)-2-aminopropanoic acid] + O
speed of sound [m/s], [1]
Conditions	m1 = 0.00939	m1 = 0.04689	m1 = 0.09896	m1 = 0.2003	m1 = 0.2979	m1 = 0.3997	m1 = 0.4941	m1 = 0.6099	m1 = 0.6973	m1 = 0.7978
288.15 K	1467.6	1469.9	1472.8	1480.3	1487.3	1494.3	1500.3	1509.5	1513.3	1520
298.15 K	1497.9	1499.8	1502.8	1509.6	1515.9	1522.7	1528	1536.7	1540.4	1546.2
308.15 K	1520.8	1522.7	1525.5	1531.8	1537.9	1544	1549	1556.8	1560.7	1566
318.15 K	1537	1539.2	1542	1547.9	1553.2	1558.7	1564.1	1571.4	1574.7	1611.9

CC(C)[C@H](N)C(=O)O [L-valine] + O
speed of sound [m/s], [1]
Conditions	m1 = 0.00555	m1 = 0.02398	m1 = 0.03504	m1 = 0.05824	m1 = 0.07873	m1 = 0.09938	m1 = 0.2068	m1 = 0.2992	m1 = 0.4017
288.15 K	1467.4	1467.3	1469.7	1469.6	1472.8	1474.8	1477	1488.4	1497.2
298.15 K	1497.5	1497.4	1499.6	1499.7	1502.4	1504.4	1506.2	1516.6	1524.8
308.15 K	1520.4	1520.4	1522	1522.6	1525	1526.9	1528.2	1537.8	1545.2
318.15 K	1537.1	1537.4	1538.7	1539	1541.2	1542.7	1544.4	1552.5	1560.4

O=C([O-])CC(O)(CC(=O)[O-])C(=O)[O-].[NH4+].[NH4+].[NH4+] [ammonium 2-hydroxypropane-1,2,3-tricarboxylate] + O
speed of sound [m/s], [1]
Conditions	288.15 K	298.15 K	308.15 K	318.15 K
m1 = 0.2	1503.6	1532.2	1553.8	1569
m1 = 0.4	1540.7	1567.5	1587.7	1602.1
m1 = 0.6	1578.5	1603.3	1622	1635.2
m1 = 0.8	1615.6	1638.6	1655.7	1667.6

O [water]
[2]
Conditions	speed of sound [m/s]
288.15 K	1463.1
298.15 K	1495.8
308.15 K	1519.1

Source: the NIST ThermoML archive (doi:10.1007/s10765-015-2006-0)
